Consider 13 compounds from ChEMBL document CHEMBL1141160, “Structure-based optimization of phenylbutyrate-derived histone deacetylase inhibitors” (J Med Chem, 2005).

pIC50: −log10 of the molar value.

The first assay has as its target Histone deacetylase.
Test: not given
Conditions: prostate.
What is called IC50 is the midpoint of a concentration-inhibition curve. High values mean weaker potency in that assay, low ones greater potency in that assay. In turn, `O=C(CCc1ccc(NC(=O)CCCc2ccccc2)cc1)NO` registered an IC50 of 1200 nM.
Same read-out and setting: to `CC[C@H](C(=O)Nc1ccc(C(=O)NO)cc1)c1ccccc1` belongs 34 nM; to `CC(C)(CCc1ccccc1)C(=O)Nc1ccc(C(=O)NO)cc1`, 25 nM; to `CC[C@@H](C(=O)Nc1ccc(C(=O)NO)cc1)c1ccccc1`, 68 nM.
On the same count and under the same terms, to `O=C(CCCCc1ccccc1)Nc1ccc(C(=O)NO)cc1` belongs 250 nM.
Still for that read-out and setting: the result for `CN(C(=O)CCCc1ccccc1)c1ccc(C(=O)NO)cc1` reads 520 nM.
As for `CC(C)(C(=O)Nc1ccc(C(=O)NO)cc1)c1ccccc1`, the IC50 is given as 98 nM.
With `O=C(NO)c1ccc(NC(=O)c2ccccc2)cc1`, the IC50 is 210 nM.
Same read-out and setting: the result for `O=C(CCCc1ccccc1)NCc1ccc(C(=O)NO)cc1` reads 530 nM.
For the compound `O=C(Cc1ccccc1)Nc1ccc(C(=O)NO)cc1`, the IC50 came to 157 nM.
Same read-out and setting: to `CCC(C(=O)Nc1ccc(C(=O)NO)cc1)c1ccccc1` (racemic) belongs 54 nM.

Another assay deals with DU-145. Description: cells. Conditions: Homo sapiens, DU-145, 96 h.
Description: Inhibitory concentration against DU-145 prostate cancer cell proliferation over 96 hr
Usually pIC50 stands for the negative decadic logarithm of the IC50, by convention in mol/L. Low readings indicate a high IC50, high ones a low IC50. For `CC(C)[C@@H](C(=O)Nc1ccc(C(=O)NO)cc1)c1ccccc1`, the pIC50 is 6.09.
With `CC(C)[C@H](C(=O)Nc1ccc(C(=O)NO)cc1)c1ccccc1` [AR-42], the pIC50 is 6.96.
